Assay results published in US8597875B2, “Method for diagnosing liver toxicity with sex specific biomarkers” (BASF SE, priority 2008, dated 2013).

Legend:
male rats = assay: Plasma metabolite profiling (GC-MS/LC-MS) for liver toxicity markers, 28-day gavage study, male rats; format: in vivo, rat; conditions: male rats
Procedure: (§1) A group of each 5 male and female rats was dosed once daily with the indicated compounds (see tables below) at 10 and 100 mg/kg body weight per gavage over 28 days. Additional groups of each 5 male and female animals served as controls. Before starting the treatment period, animals, which were 62-64 days old when supplied, were acclimatized to the housing and environmental conditions for 7 days. All animals of the animal population were kept under the same constant temperature (20-24±3° C.) and the same constant humidity (30-70%). Each animal of the animal population was kept in a separate cage. The animals of the animal population are fed ad libitum. The food to be used was be essentially free of chemical or microbial contaminants. Drinking water was also offered ad libitum. Accordingly, the water was be free of chemical and microbial contaminants as laid down in the European Drinking Water Directive 98/83/EG. The illumination period was 12 hours light followed by 12 hours darkness (12 hours light, from 6:00 to 18:00, and 12 hours darkness, from 18:00 to 6:00).
(§2) In the morning of day 7, 14, and 28, blood was taken from the retroorbital venous plexus from fasted anaesthetized animals. From each animal, 1 ml of blood was collected with EDTA as anticoagulant. The samples were be centrifuged for generation of plasma. All plasma samples were covered with a N2 atmosphere and then stored at −80° C. until analysis.
(§3) For mass spectrometry-based metabolite profiling analyses plasma samples were extracted and a polar and a non-polar fraction was obtained. For GC-MS analysis, the non-polar fraction was treated with methanol under acidic conditions to yield the fatty acid methyl esters. Both fractions were further derivatised with O-methyl-hydroxyamine hydrochloride and pyridine to convert Oxo-groups to O-methyloximes and subsequently with a silylating agent before analysis. In LC-MS analysis, both fractions were reconstituted in appropriate solvent mixtures. HPLC was performed by gradient elution on reversed phase separation columns. For mass spectrometric detection metanomics proprietary technology was applied which allows target and high sensitivity MRM (Multiple Reaction Monitoring) profiling in parallel to a full screen analysis.
(§4) Following comprehensive analytical validation steps, the data for each analyte were normalized against data from pool samples. These samples were run in parallel through the whole process to account for process variability. The significance of treatment group values specific for sex, dose group and metabolite was determined by comparing means of the treated groups to the means of the respective untreated control groups using WELCH-test. Normalized treatment group values and their significance were fed into a database for further statistics and data mining processes.
(§5) The changes of the group of plasma metabolites being indicative for liver toxicity after treatment of the rats are shown in the following tables: […]

female rats = assay: Plasma metabolite profiling (GC-MS/LC-MS) for liver toxicity markers, 28-day gavage study, female rats; format: in vivo, rat; conditions: female rats
Procedure: as §1, §2, §3, §4, §5

## CN(C)C=O [Dimethylformamide]
Male rats; mh7 (day 7)
  1,2-Dioleoyl-sn-glycero-3-phosphatidyl-L-serine, change of plasma metabolite: 1.31
  4-Hydroxysphingosine, change of plasma metabolite: 2.14
  Arachidonic acid (C20:cis-[5,8,11,14]4), change of plasma metabolite: 1.68
  Behenic acid (C22:0), change of plasma metabolite: 2.07
  Ceramide (d18:1, C24:0), change of plasma metabolite: 1.72
  Ceramide (d18:1, C24:1), change of plasma metabolite: 1.71
  Cholesterol, change of plasma metabolite: 2.01
  Docosahexaenoic acid (C22:cis[4,7,10,13,16,19]6), change of plasma metabolite: 1.96
  Eicosatrienoic acid, change of plasma metabolite: 2.55
  Glycerolphosphate, lipid fraction, change of plasma metabolite: 1.86
  Heptadecanoic acid (C17:0), change of plasma metabolite: 1.27
  Lignoceric acid (C24:0), change of plasma metabolite: 2.04
  Linoleic acid (C18:cis[9,12]2), change of plasma metabolite: 1.71
  Nervonic acid (C24:1), change of plasma metabolite: 2.53
  Palmitic acid (C16:0), change of plasma metabolite: 1.38
  Phosphatidylcholine (C18:2, C20:4), change of plasma metabolite: 1.18
  alpha-Tocopherol, change of plasma metabolite: 2.69
  myo-Inositol-2-monophosphate, lipid fraction, change of plasma metabolite: 1.92
Male rats; mh14 (day 14)
  1,2-Dioleoyl-sn-glycero-3-phosphatidyl-L-serine, change of plasma metabolite: 1.28
  4-Hydroxysphingosine, change of plasma metabolite: 2.07
  Arachidonic acid (C20:cis-[5,8,11,14]4), change of plasma metabolite: 1.74
  Behenic acid (C22:0), change of plasma metabolite: 2.15
  Ceramide (d18:1, C24:0), change of plasma metabolite: 1.40
  Ceramide (d18:1, C24:1), change of plasma metabolite: 1.70
  Cholesterol, change of plasma metabolite: 2.15
  Docosahexaenoic acid (C22:cis[4,7,10,13,16,19]6), change of plasma metabolite: 1.99
  Eicosatrienoic acid, change of plasma metabolite: 2.02
  Glycerolphosphate, lipid fraction, change of plasma metabolite: 1.67
  Heptadecanoic acid (C17:0), change of plasma metabolite: 1.51
  Lignoceric acid (C24:0), change of plasma metabolite: 2.22
  Linoleic acid (C18:cis[9,12]2), change of plasma metabolite: 1.70
  Nervonic acid (C24:1), change of plasma metabolite: 3.57
  Palmitic acid (C16:0), change of plasma metabolite: 1.64
  Phosphatidylcholine (C18:2, C20:4), change of plasma metabolite: 1.17
  alpha-Tocopherol, change of plasma metabolite: 2.46
  myo-Inositol-2-monophosphate, lipid fraction, change of plasma metabolite: 2.48
Male rats; mh28 (day 28)
  1,2-Dioleoyl-sn-glycero-3-phosphatidyl-L-serine, change of plasma metabolite: 1.41
  4-Hydroxysphingosine, change of plasma metabolite: 2.35
  Arachidonic acid (C20:cis-[5,8,11,14]4), change of plasma metabolite: 1.55
  Behenic acid (C22:0), change of plasma metabolite: 2.24
  Ceramide (d18:1, C24:0), change of plasma metabolite: 1.63
  Ceramide (d18:1, C24:1), change of plasma metabolite: 1.88
  Cholesterol, change of plasma metabolite: 1.81
  Docosahexaenoic acid (C22:cis[4,7,10,13,16,19]6), change of plasma metabolite: 2.06
  Eicosatrienoic acid, change of plasma metabolite: 1.60
  Glycerolphosphate, lipid fraction, change of plasma metabolite: 1.59
  Heptadecanoic acid (C17:0), change of plasma metabolite: 1.25
  Lignoceric acid (C24:0), change of plasma metabolite: 2.52
  Linoleic acid (C18:cis[9,12]2), change of plasma metabolite: 1.49
  Nervonic acid (C24:1), change of plasma metabolite: 3.39
  Palmitic acid (C16:0), change of plasma metabolite: 1.41
  Phosphatidylcholine (C18:2, C20:4), change of plasma metabolite: 1.26
  alpha-Tocopherol, change of plasma metabolite: 1.87
  myo-Inositol-2-monophosphate, lipid fraction, change of plasma metabolite: 2.31
Female rats; fh7 (day 7)
  1,2-Dioleoyl-sn-glycero-3-phosphatidyl-L-serine, change of plasma metabolite: 1.35
  4-Hydroxysphinganine, change of plasma metabolite: 1.79
  Arachidonic acid (C20:cis-[5,8,11,14]4), change of plasma metabolite: 2.04
  Behenic acid (C22:0), change of plasma metabolite: 2.15
  Ceramide (d18:1, C24:0), change of plasma metabolite: 1.64
  Cholesterol, change of plasma metabolite: 2.41
  Docosahexaenoic acid (C22:cis[4,7,10,13,16,19]6), change of plasma metabolite: 2.02
  Glycerol, lipid fraction, change of plasma metabolite: 1.64
  Glycerolphosphate, lipid fraction, change of plasma metabolite: 2.37
  Heptadecanoic acid (C17:0), change of plasma metabolite: 1.43
  ID28x493, change of plasma metabolite: 2.27
  Lignoceric acid (C24:0), change of plasma metabolite: 2.01
  Linoleic acid (C18:cis[9,12]2), change of plasma metabolite: 1.90
  Nervonic acid (C24:1), change of plasma metabolite: 2.51
  Palmitic acid (C16:0), change of plasma metabolite: 1.93
  Phosphate, lipid (Phospholipids), change of plasma metabolite: 1.51
  Stearic acid (C18:0), change of plasma metabolite: 1.62
  TAG No 1, change of plasma metabolite: 2.26
  Threonic acid, change of plasma metabolite: 1.49
  Tricosanoic acid (C23:0), change of plasma metabolite: 1.65
Female rats; fh14 (day 14)
  1,2-Dioleoyl-sn-glycero-3-phosphatidyl-L-serine, change of plasma metabolite: 1.69
  4-Hydroxysphinganine, change of plasma metabolite: 2.26
  Arachidonic acid (C20:cis-[5,8,11,14]4), change of plasma metabolite: 1.93
  Behenic acid (C22:0), change of plasma metabolite: 2.48
  Ceramide (d18:1, C24:0), change of plasma metabolite: 2.13
  Cholesterol, change of plasma metabolite: 2.23
  Docosahexaenoic acid (C22:cis[4,7,10,13,16,19]6), change of plasma metabolite: 2.21
  Glycerol, lipid fraction, change of plasma metabolite: 1.88
  Glycerolphosphate, lipid fraction, change of plasma metabolite: 1.97
  Heptadecanoic acid (C17:0), change of plasma metabolite: 1.64
  ID28x493, change of plasma metabolite: 3.14
  Lignoceric acid (C24:0), change of plasma metabolite: 2.29
  Linoleic acid (C18:cis[9,12]2), change of plasma metabolite: 2.33
  Nervonic acid (C24:1), change of plasma metabolite: 2.69
  Palmitic acid (C16:0), change of plasma metabolite: 2.08
  Phosphate, lipid (Phospholipids), change of plasma metabolite: 1.35
  Stearic acid (C18:0), change of plasma metabolite: 1.67
  TAG No 1, change of plasma metabolite: 2.87
  Threonic acid, change of plasma metabolite: 1.37
Female rats; fh28 (day 28)
  1,2-Dioleoyl-sn-glycero-3-phosphatidyl-L-serine, change of plasma metabolite: 1.47
  4-Hydroxysphinganine, change of plasma metabolite: 2.22
  Arachidonic acid (C20:cis-[5,8,11,14]4), change of plasma metabolite: 1.80
  Behenic acid (C22:0), change of plasma metabolite: 2.18
  Ceramide (d18:1, C24:0), change of plasma metabolite: 1.82
  Cholesterol, change of plasma metabolite: 2.08
  Docosahexaenoic acid (C22:cis[4,7,10,13,16,19]6), change of plasma metabolite: 1.76
  Glycerol, lipid fraction, change of plasma metabolite: 1.89
  Glycerolphosphate, lipid fraction, change of plasma metabolite: 2.35
  Heptadecanoic acid (C17:0), change of plasma metabolite: 1.48
  ID28x493, change of plasma metabolite: 2.02
  Lignoceric acid (C24:0), change of plasma metabolite: 2.45
  Linoleic acid (C18:cis[9,12]2), change of plasma metabolite: 2.37
  Nervonic acid (C24:1), change of plasma metabolite: 2.91
  Palmitic acid (C16:0), change of plasma metabolite: 1.93
  Phosphate, lipid (Phospholipids), change of plasma metabolite: 1.59
  Stearic acid (C18:0), change of plasma metabolite: 1.61
  TAG No 1, change of plasma metabolite: 3.81
  Threonic acid, change of plasma metabolite: 1.19
